In ChEMBL document CHEMBL6109094, “Anti-inflammatory agents design via the fragment hybrid strategy in the discovery of compound c1 for treating ALI and UC” (Eur J Med Chem, 2025):
Active and inactive are the calls of the source. The rule behind the calls is not given here.

Legend:
RAW264.7 [1] = assay: Anti-inflammatory activity in mouse RAW264.7 cells assessed as inhibition of LPS-induced IL-6 mRNA level preincubated for 2 hrs followed by LPS addition measured after 6 hrs by RT-qPCR analysis; type: functional, cell-based; details: dose 1-4 µM, time 8.0 hrs
[2] = target: Mitogen-activated protein kinase 9 (Homo sapiens) (UniProt P45984); assay: Inhibition of JNK2 (unknown origin) at 10 uM relative to control
Chain of Mitogen-activated protein kinase 9 (Homo sapiens) (P45984 whole entry, looked up): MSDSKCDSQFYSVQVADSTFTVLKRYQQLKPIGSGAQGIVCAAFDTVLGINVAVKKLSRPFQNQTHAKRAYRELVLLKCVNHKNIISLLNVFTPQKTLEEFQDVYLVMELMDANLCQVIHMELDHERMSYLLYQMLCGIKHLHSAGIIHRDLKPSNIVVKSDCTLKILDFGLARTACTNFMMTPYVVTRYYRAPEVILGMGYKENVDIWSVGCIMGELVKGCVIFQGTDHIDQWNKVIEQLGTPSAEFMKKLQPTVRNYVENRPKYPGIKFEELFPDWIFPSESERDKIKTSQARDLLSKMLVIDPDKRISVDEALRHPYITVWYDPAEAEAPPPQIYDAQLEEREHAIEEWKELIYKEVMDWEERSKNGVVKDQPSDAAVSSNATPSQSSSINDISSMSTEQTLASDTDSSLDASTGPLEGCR

[3] = target: Mitogen-activated protein kinase 14 (Homo sapiens) (UniProt Q16539); assay: Inhibition of p38-alpha (unknown origin) at 10 uM relative to control
Chain of Mitogen-activated protein kinase 14 (Homo sapiens) (Q16539 whole entry): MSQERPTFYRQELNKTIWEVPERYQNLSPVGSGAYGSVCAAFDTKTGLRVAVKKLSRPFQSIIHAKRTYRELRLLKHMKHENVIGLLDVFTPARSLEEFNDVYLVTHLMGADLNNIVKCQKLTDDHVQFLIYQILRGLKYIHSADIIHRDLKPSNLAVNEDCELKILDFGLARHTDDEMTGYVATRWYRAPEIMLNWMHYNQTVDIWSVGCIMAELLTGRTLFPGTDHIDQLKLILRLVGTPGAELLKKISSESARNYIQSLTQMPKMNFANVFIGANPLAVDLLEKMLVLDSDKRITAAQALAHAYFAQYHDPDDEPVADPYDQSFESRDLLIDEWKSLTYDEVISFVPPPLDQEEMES

[4] = Acute toxicity in C57BL/6 mouse assessed as change in pathological change in spleen at 100 to 200 mg/kg, po measured for 10 days by H and E staining based analysis; type: organism-based; details: in vivo, 240 h, dose 100-200 mg/kg, time 10 day
[5] = Cmax in Sprague-Dawley rat at 10 mg/kg, po measured for 24 hrs; type: ADME, organism-based; details: in vivo
[6] = Acute toxicity in C57BL/6 mouse assessed as change in pathological change in heart at 100 to 200 mg/kg, po measured for 10 days by H and E staining based analysis; type: organism-based; details: in vivo, 240 h, dose 100-200 mg/kg, time 10 day
Mus musculus [7] = assay: Anti-inflammatory activity in C57BL/6 mouse model of LPS-induced ALI assessed as inhibition of IL-6 level in BALF at 20 mg/kg, po measured after 6 hrs with administered on every 12 hrs followed by LPS treatment after 30 mins post-compound treatment by ELISA; type: functional, organism-based; details: time 6.5 hrs
[8] = Tmax in Sprague-Dawley rat at 1 mg/kg, iv measured for 24 hrs; type: ADME, organism-based; details: in vivo
[9] = Oral bioavailability in Sprague-Dawley rat at 10 mg/kg measured for 24 hrs; type: ADME, organism-based; details: in vivo
Mus musculus [10] = assay: Anti-inflammatory activity in C57BL/6 mouse model of DSS-induced ulcerative colitis assessed as colon length at 100 mg/kg, po administered for 8 days (reference value: 5.1 cm); type: functional, organism-based; details: time 8.0 day
[11] = Cmax in Sprague-Dawley rat at 1 mg/kg, iv measured for 24 hrs; type: ADME, organism-based; details: in vivo
RAW264.7 [12] = assay: Inhibition of MAPK signalling pathway in mouse RAW264.7 cells assessed as reduction in JNK phosphorylation at 2.5 uM preincubated for 2 hrs followed by LPS addition measured after 30 mins by Western blot analysis; type: cell-based; details: time 2.5 hrs
J774.A1 = assay: cells; details: Mus musculus
Description: Anti-inflammatory activity in mouse J774.A1 cells assessed as inhibition of LPS-induced TNF-alpha level preincubated for 30 mins followed by LPS addition measured after 24 hrs by ELISA

[13] = AUC (0 to t) in Sprague-Dawley rat at 1 mg/kg, iv measured for 24 hrs; type: ADME, organism-based; details: in vivo
Mus musculus [14] = assay: Anti-inflammatory activity in C57BL/6 mouse model of DSS-induced ulcerative colitis assessed as decrease in hyperplasia in white pulp of spleen administered orally for 8 days; type: functional, organism-based; details: dose 20-40 mg/kg, route po, time 8.0 day
Mus musculus [15] = assay: Anti-inflammatory activity in C57BL/6 mouse model of LPS-induced ALI assessed as decrease in protein concentration in BALF at 20 mg/kg, po measured after 6 hrs with administered on every 12 hrs followed by LPS treatment after 30 mins post-compound treatment; type: functional, organism-based; details: time 6.5 hrs
THP-1 = assay: cells; details: Homo sapiens
Description: Anti-inflammatory activity in human THP-1 cells assessed as inhibition of LPS-induced TNF-alpha level preincubated for 30 mins followed by LPS addition measured after 24 hrs by ELISA

Mus musculus [16] = assay: Anti-inflammatory activity in C57BL/6 mouse model of LPS-induced ALI assessed as decrease in thickening of alveolar septa in lung tissue at 20 mg/kg, po measured after 6 hrs with administered on every 12 hrs followed by LPS treatment after 30 mins post-compound treatment by H and E/IHC staining based analysis; type: functional, organism-based; details: time 6.5 hrs
Mus musculus [17] = assay: Anti-inflammatory activity in C57BL/6 mouse model of DSS-induced ulcerative colitis assessed as decrease in spleen weight at 20 to 40 mg/kg, po administered for 8 days; type: functional, organism-based; details: dose 20-40 mg/kg, time 8.0 day
[18] = Half life in Sprague-Dawley rat at 10 mg/kg, po measured for 24 hrs; type: ADME, organism-based; details: in vivo
[19] = Half life in Sprague-Dawley rat at 1 mg/kg, iv measured for 24 hrs; type: ADME, organism-based; details: in vivo
[20] = Acute toxicity in C57BL/6 mouse assessed as change in body weight change at 100 to 200 mg/kg, po measured for 10 days; type: organism-based; details: in vivo, 240 h, dose 100-200 mg/kg, time 10 day
Mus musculus [21] = assay: Anti-inflammatory activity in C57BL/6 mouse model of LPS-induced ALI assessed as decrease in total cell count in BALF at 20 mg/kg, po measured after 6 hrs with administered on every 12 hrs followed by LPS treatment after 30 mins post-compound treatment; type: functional, organism-based; details: time 6.5 hrs
Mus musculus [22] = assay: Anti-inflammatory activity in C57BL/6 mouse model of DSS-induced ulcerative colitis assessed as colon length at 20 mg/kg, po administered for 8 days (reference value: 5.1 cm); type: functional, organism-based; details: time 8.0 day
Homo sapiens = organism: Homo sapiens; assay: Inhibition of TAK1 (unknown origin) at 10 uM relative to control
RAW264.7 [23] = assay: cells; details: Mus musculus
Description: Anti-inflammatory activity in mouse RAW264.7 cells assessed as inhibition of LPS-induced IL-6 level preincubated for 30 mins followed by LPS addition measured after 24 hrs by ELISA

With COc1cc2c(O[C@H]3CC[C@@H](N)CC3)ncnc2cc1OCc1cccc(Br)c1 the inhibition (RAW264.7 [1]) was “Dose-dependent-effect”, the inhibition [2] was 2.49% and the inhibition [3] was 31.4%. For the same compound, the Activity [4] was “Non-toxic”, the Cmax [5] was 856 ng/mL and the Activity [6] was “Non-toxic”. For the same compound, the inhibition (Mus musculus [7]) was “Active”, the Tmax [8] was 4.8 min and the bioavailability [9] was 5.5%. For the same compound, the Activity (Mus musculus [10]) was “Active”, the Cmax [11] was 7280 ng/mL and the inhibition (RAW264.7 [12]) was “Active”. For the same compound, the IC50 (J774.A1) was 1330 nM, the AUC(0-t) at 24 h [13] was 7730 ng·h/mL and the Activity (Mus musculus [14]) was “Dose-dependent-effect”. The Activity (Mus musculus [15]) was “Active”, the IC50 (THP-1) was 5.03 µM and the Activity (Mus musculus [16]) was “Active”. The Activity (Mus musculus [17]) was “Active; Activity Was Comparable To 5-Asa”, the half-life [18] was 180 min and the half-life [19] was 106 min. For the same compound, the Activity [20] was “Non-toxic”, the Activity (Mus musculus [21]) was “Active” and the Activity (Mus musculus [22]) was “Active”. The inhibition (Homo sapiens) was 4.42% and the IC50 (RAW264.7 [23]) was 480 nM.
